This note sets out measurements from patent US12655106B2 (Eikonizo Therapeutics, Inc., priority 2021, dated 2026).

Structures are written as SMILES.

One experiment has as its target T1, Full length Human HDAC6 (Homo sapiens, UniProt Q9UBN7).
T1 construct: Full length Human HDAC6; FLAG (C); host or cells: baculovirus expression system
T1 sequence (Q9UBN7 1-1215): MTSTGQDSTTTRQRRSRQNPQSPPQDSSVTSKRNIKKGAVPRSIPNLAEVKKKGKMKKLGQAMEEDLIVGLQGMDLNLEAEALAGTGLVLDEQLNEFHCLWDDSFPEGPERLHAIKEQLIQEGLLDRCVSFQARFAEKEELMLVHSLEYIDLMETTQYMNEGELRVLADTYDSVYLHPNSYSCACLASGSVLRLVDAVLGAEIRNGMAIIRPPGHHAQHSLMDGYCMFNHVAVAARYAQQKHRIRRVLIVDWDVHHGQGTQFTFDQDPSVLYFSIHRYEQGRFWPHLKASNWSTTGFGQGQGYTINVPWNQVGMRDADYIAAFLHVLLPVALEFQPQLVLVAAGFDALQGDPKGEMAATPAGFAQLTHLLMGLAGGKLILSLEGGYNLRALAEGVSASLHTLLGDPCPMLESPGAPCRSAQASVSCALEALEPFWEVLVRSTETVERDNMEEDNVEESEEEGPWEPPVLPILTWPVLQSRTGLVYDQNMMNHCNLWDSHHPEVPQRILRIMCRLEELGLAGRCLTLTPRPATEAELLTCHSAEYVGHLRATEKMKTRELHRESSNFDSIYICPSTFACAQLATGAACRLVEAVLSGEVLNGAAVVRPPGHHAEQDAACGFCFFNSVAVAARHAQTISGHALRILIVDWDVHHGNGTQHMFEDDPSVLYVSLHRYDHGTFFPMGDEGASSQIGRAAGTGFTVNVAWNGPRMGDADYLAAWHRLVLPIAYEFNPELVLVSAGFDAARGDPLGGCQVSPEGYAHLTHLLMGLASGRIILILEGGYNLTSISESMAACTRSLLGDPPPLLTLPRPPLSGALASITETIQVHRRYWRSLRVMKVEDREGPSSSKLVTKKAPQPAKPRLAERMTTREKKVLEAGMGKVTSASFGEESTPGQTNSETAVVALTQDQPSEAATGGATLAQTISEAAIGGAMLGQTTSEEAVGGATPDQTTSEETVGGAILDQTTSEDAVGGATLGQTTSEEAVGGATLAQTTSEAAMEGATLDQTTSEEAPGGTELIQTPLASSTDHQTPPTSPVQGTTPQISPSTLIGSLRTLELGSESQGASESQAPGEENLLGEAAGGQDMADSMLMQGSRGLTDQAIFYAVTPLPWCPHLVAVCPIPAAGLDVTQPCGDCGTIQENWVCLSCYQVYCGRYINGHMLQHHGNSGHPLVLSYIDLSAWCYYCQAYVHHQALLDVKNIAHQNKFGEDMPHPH
In words: Caliper endpoint assay for HDAC enzymatic activity (HDAC6). It counts as biochemical. The note with it: for IC50: in vitro enzymatic, Caliper endpoint assay, 30 min pre-incubation, 1 μM substrate peptide; for Selectivity (6 v 8): ratio of HDAC8 IC50/HDAC6 IC50.

The next experiment addresses T2, Full length Human HDAC8 (Homo sapiens, UniProt Q9BY41).
T2 construct: Full length Human HDAC8; HIS (N); host or cells: baculovirus expression system
T2 sequence (Q9BY41 1-377): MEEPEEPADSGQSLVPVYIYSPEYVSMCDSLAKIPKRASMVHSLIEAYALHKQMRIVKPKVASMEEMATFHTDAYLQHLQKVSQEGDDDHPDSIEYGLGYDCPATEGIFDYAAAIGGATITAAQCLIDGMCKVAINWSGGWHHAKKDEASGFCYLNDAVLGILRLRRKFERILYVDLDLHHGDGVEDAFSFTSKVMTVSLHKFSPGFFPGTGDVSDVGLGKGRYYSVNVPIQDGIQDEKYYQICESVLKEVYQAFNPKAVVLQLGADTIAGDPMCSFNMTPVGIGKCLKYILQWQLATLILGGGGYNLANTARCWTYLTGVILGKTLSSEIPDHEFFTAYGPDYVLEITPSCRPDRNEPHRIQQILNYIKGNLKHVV
In words: Caliper endpoint assay for HDAC enzymatic activity (HDAC8). Type of experiment: biochemical. The note with it: in vitro enzymatic, 30 min pre-incubation, 1 μM substrate peptide.

Regarding `O=C(NO)c1cc(F)c2c(c1)CCN(C1CCC13CN(C1CC1)C3)C2` (stereo not drawn) [Compound 303, 2-(2-cyclopropyl-2-azaspiro[3.3]heptan-7-yl)-8-fluoro-3,4-dihydro-1H-isoquinoline-6-carbohydroxamic acid], the IC50 (as a rule, the concentration needed to halve the response being measured) on Full length Human HDAC6 lay within 0.001 to 0.1 µM; against Full length Human HDAC8, 1 to 10 µM. On Full length Human HDAC6, the “Selectivity (6 v 8)” value is given as “III (III: >10-100)”.
The matching figures for `CN1CCC2(CC1)CC(N1CCc3cc(C(=O)NO)cc(F)c3C1)C2` [Compound 198, 8-fluoro-N-hydroxy-2-(7-methyl-7-azaspiro[3.5]nonan-2-yl)-1,2,3,4-tetrahydroisoquinoline-6-carboxamide]: 0.001 to 0.1 µM, 10 to 100 µM and “IV (IV: >100-1000)”.
For `CN1CC[C@]2(CC[C@@H](N3CCc4cc(C(=O)NO)cc(F)c4C3)C2)C1` (single isomer, unassigned) [Compound 402], on Full length Human HDAC6, the IC50 was in the range of 0.001 to 0.1 µM and the “Selectivity (6 v 8)” value is recorded as “IV (IV: >100-1000)”. Also, the IC50 against Full length Human HDAC8 lay within 1 to 10 µM.
`O=C(NO)c1cc(F)c2c(c1)CN(C[C@@H]1CCCCO1)CC2` (single isomer, unassigned) [Compound 214]: on Full length Human HDAC6, the 50% inhibitory concentration (IC50) was in the range of 0.001 to 0.1 µM and the “Selectivity (6 v 8)” value is “III (III: >10-100)”. Further, at Full length Human HDAC8, the half-inhibitory concentration (IC50) was in the range of 1 to 10 µM.
In the case of `CN1Cc2cc(C(=O)NO)ccc2[C@@H]2CCCN21` (single isomer, unassigned) [Compound 160], the concentration for half-maximal inhibition (IC50) against Full length Human HDAC6 and at Full length Human HDAC8 was 0.1 to 1 µM in each case.
`O=C(NO)c1cc(F)c2c(c1)CCN(C1CC3(C1)CN(C1CC1)C3)C2` [Compound 291, 2-(2-cyclopropyl-2-azaspiro[3.3]heptan-6-yl)-8-fluoro-N-hydroxy-1,2,3,4-tetrahydroisoquinoline-6-carboxamide]: at Full length Human HDAC6, the IC50 lay in the range of 0.001 to 0.1 µM and the “Selectivity (6 v 8)” value is on record as “IV (IV: >100-1000)”. This compound came in with an IC50 at Full length Human HDAC8 of 1 to 10 µM.
With `O=C(NO)c1cc(F)c2c(c1)CCN(C1CC3(CCCCN3C3CC3)C1)C2` (stereo not drawn) [Compound 353, 2-(5-cyclopropyl-5-azaspiro[3.5]nonan-2-yl)-8-fluoro-3,4-dihydro-1H-isoquinoline-6-carbohydroxamic acid], on Full length Human HDAC6, the concentration for half-maximal inhibition (IC50) was in the range of 0.001 to 0.1 µM and the “Selectivity (6 v 8)” value is listed as “IV (IV: >100-1000)”. Besides, the IC50 against Full length Human HDAC8 lay in the range of 10 to 100 µM.
As for `O=C(NO)c1cc(F)c2c(c1)CCN(C1CCC3(CCC3)CC1)C2` [Compound 192, 8-fluoro-2-spiro[3.5]nonan-7-yl-3,4-dihydro-1H-isoquinoline-6-carbohydroxamic acid], at Full length Human HDAC6, the IC50 lay within 0.001 to 0.1 µM and the “Selectivity (6 v 8)” value is on record as “V (V: >1000)”. This compound also gave a 50% inhibitory concentration (IC50) at Full length Human HDAC8 of 10 to 100 µM.
Turning to `O=C(NO)c1cc(F)c2c(c1)CCN(C1CC3(CCCO3)C1)C2` (single isomer, unassigned) [Compound 191, 8-fluoro-N-hydroxy-2-(5-oxaspiro[3.4]octan-2-yl)-1,2,3,4-tetrahydroisoquinoline-6-carboxamide], at Full length Human HDAC6, the IC50 is 0.001 to 0.1 µM and the “Selectivity (6 v 8)” value is given as “IV (IV: >100-1000)”. Moreover, the IC50 against Full length Human HDAC8 fell in the range of 10 to 100 µM.
The matching figures for `O=C(NO)c1cc(F)c2c(c1)CCN(C1CC3(CCOC3)C1)C2` (single isomer, unassigned) [Compound 188, 8-fluoro-N-hydroxy-2-(6-oxaspiro[3.4]octan-2-yl)-1,2,3,4-tetrahydroisoquinoline-6-carboxamide]: 0.001 to 0.1 µM, “IV (IV: >100-1000)” and 10 to 100 µM.
Consider `O=C(NO)c1ccc(CN2C3CCCC2CCC3)c(F)c1` [Compound 60], for which the “Selectivity (6 v 8)” value at Full length Human HDAC6 is recorded as “II (II: >1-10)”.
As to `CC(=O)N1CCC2(CCC2N2CCc3cc(C(=O)NO)cc(F)c3C2)CC1` (stereo not drawn) [Compound 360, 2-(7-acetyl-7-azaspiro[3.5]nonan-3-yl)-8-fluoro-3,4-dihydro-1H-isoquinoline-6-carbohydroxamic acid], at Full length Human HDAC6, the concentration for half-maximal inhibition (IC50) was in the range of 0.001 to 0.1 µM and the “Selectivity (6 v 8)” value is given as “IV (IV: >100-1000)”. This compound displayed an IC50 at Full length Human HDAC8 of 10 to 100 µM.
`CC[C@H]1Cc2c(F)cc(C(=O)NO)cc2CN1CC12CC3CC(CC(C3)C1)C2` (single isomer, unassigned) [Compound 508]: on Full length Human HDAC6, the IC50 was 0.001 to 0.1 µM and the “Selectivity (6 v 8)” value is given as “III (III: >10-100)”. This compound also had an IC50 against Full length Human HDAC8 of 1 to 10 µM.
Turning to `O=C(NO)c1cc(F)c2c(c1)CCN(C1CCC13CNC3)C2` (stereo not drawn) [Compound 301, 2-(2-azaspiro[3.3]heptan-7-yl)-8-fluoro-3,4-dihydro-1H-isoquinoline-6-carbohydroxamic acid], at Full length Human HDAC6, the IC50 lay in the range of 0.001 to 0.1 µM and the “Selectivity (6 v 8)” value was “IV (IV: >100-1000)”. Further, the IC50 against Full length Human HDAC8 was in the range of 1 to 10 µM.
With `O=C(NO)c1cc(F)c2c(c1)CCN(C1CC3(CCNCC3)C1)C2` [Compound 197, 2-(7-azaspiro[3.5]nonan-2-yl)-8-fluoro-3,4-dihydro-1H-isoquinoline-6-carbohydroxamic acid], on Full length Human HDAC6, the half-inhibitory concentration (IC50) is 0.001 to 0.1 µM and the “Selectivity (6 v 8)” value was “IV (IV: >100-1000)”. Besides, the IC50 on Full length Human HDAC8 fell in the range of 10 to 100 µM.
For `O=C(NO)c1cc(F)cc(CN2CCC3(CCCCC3)CC2)c1` [Compound 276, 3-((3-azaspiro[5.5]undecan-3-yl)methyl)-5-fluoro-N-hydroxybenzamide], on Full length Human HDAC6, the IC50 lay in the range of 10 to 100 µM and the “Selectivity (6 v 8)” value is given as “I (I: 0.1-1)”. At Full length Human HDAC8, this compound had an IC50 of 1 to 10 µM.
Consider `O=C(NO)c1cc(F)c2c(c1)C[C@@H]1COCCN1C2` (single isomer, unassigned) [Compound 129], for which the IC50 at Full length Human HDAC6 is 10 to 100 µM; against Full length Human HDAC8, greater than 100 µM.
Consider `CC[C@H]1Cc2c(F)cc(C(=O)NO)cc2CN1CC12CC(NC)(C1)C2` (single isomer, unassigned) [Compound 523], for which, on Full length Human HDAC6, the IC50 was in the range of 0.001 to 0.1 µM and the “Selectivity (6 v 8)” value is “IV (IV: >100-1000)”. Besides, on Full length Human HDAC8, the half-maximal inhibitory concentration (IC50) is 10 to 100 µM.
For `O=C1CC2CCC(C1)N2Cc1ccc(C(=O)NO)cc1F` [Compound 63], the “Selectivity (6 v 8)” value on Full length Human HDAC6 is “III (III: >10-100)”.
Consider `O=C(NO)c1cc(F)c2c(c1)CCN1CCC[C@H]21` [Compound 80], for which the 50% inhibitory concentration (IC50) against Full length Human HDAC6 lay within 0.1 to 1 µM; against Full length Human HDAC8 it was 1 to 10 µM. Also, the “Selectivity (6 v 8)” value on Full length Human HDAC6 is “III (III: >10-100)”.
As to `CN1CC2CCC(C1)N2Cc1ccc(C(=O)NO)cc1F` [Compound 56], the “Selectivity (6 v 8)” value on Full length Human HDAC6 is given as “III (III: >10-100)”.
For `CC1(C)C[C@H]2Cc3cc(C(=O)NO)cc(F)c3CN2C1` (single isomer, unassigned) [Compound 125], the “Selectivity (6 v 8)” value at Full length Human HDAC6 is listed as “III (III: >10-100)”.
Same read-out and setting: the result for `O=C(NO)c1ccc2c(c1)CN1CCC[C@@H]21` (single isomer, unassigned) [Compound 165] reads “III (III: >10-100)”; that for `O=C(NO)c1ccc(CN2CCC3(CCCCC3)C2)c(F)c1` [Compound 75, 4-((2-Azaspiro[4.5]decan-2-yl)methyl)-3-fluoro-N-hydroxybenzamide], “III (III: >10-100)”; that for `O=C(NO)c1ccc(CN2C3CCC2COC3)c(F)c1` [Compound 59], “III (III: >10-100)”.
As for `O=C(NO)c1cc(F)c(CN2C3CCC2COC3)cc1F` [Compound 50], the “Selectivity (6 v 8)” value on Full length Human HDAC6 is recorded as “III (III: >10-100)”.
Take `O=C1CC2CCCC(C1)N2Cc1ccc(C(=O)NO)cc1F` [Compound 62]: the “Selectivity (6 v 8)” value on Full length Human HDAC6 is given as “III (III: >10-100)”.
On the same count and under the same terms, the result for `O=C(NO)c1ccc(CN2C3CCCC2COC3)c(F)c1` [Compound 52] reads “III (III: >10-100)”.
Regarding `O=C(NO)c1ccc(CN2C3CCCC2CC3)c(F)c1` [Compound 61], the “Selectivity (6 v 8)” value on Full length Human HDAC6 is on record as “II (II: >1-10)”.
